As usually defined, the IC50 is the point on the concentration scale where inhibition reaches its midpoint. A low value points to inhibition by little substance.

For 16 molecules, IC50 results are on record in ChEMBL document CHEMBL1136654, “1H-Pyrazolo[3,4-b]pyridine inhibitors of cyclin-dependent kinases” (Bioorg Med Chem Lett, 2003).

The target in assay [1] is Cyclin-dependent kinase 2/cyclin E (Homo sapiens, UniProt P24941). The experiment in a line: In vitro inhibition of human CDK2/cyclin E. It is filed as protein-complex assay.
Assay [2] deals with Cyclin-dependent kinase 1/cyclin B (Homo sapiens, UniProt P06493). Put plainly: Inhibitory concentration against CDK1/cyclin B was determined. The class given is protein-complex assay.
Assay [3] concerns the target Cyclin-dependent kinase 7/ cyclin H (Homo sapiens, UniProt P50613). Put plainly: Inhibition of CDK7/cyclin H. It is filed as protein-complex assay.
The target in assay [4] is Cyclin-dependent kinase 4/cyclin D (Homo sapiens, UniProt P11802). Put plainly: Inhibition of CDK4/cyclin D was determined. It is filed as protein-complex assay.
The target in a further assay is Protein kinase C (PKC). The experiment in a line: Inhibition of PKC. The class given is protein assay.
In assay [5] the target is cAMP-dependent protein kinase (PKA) (Homo sapiens, UniProt P22694+P17612+P22612). The experiment in a line: Inhibition of PKA. It is filed as protein assay.
For assay [6], the target named is Tyrosine-protein kinase Lck (Homo sapiens, UniProt P06239). Put plainly: Inhibition of LCK.
Sequence of Tyrosine-protein kinase Lck (P06239 whole entry): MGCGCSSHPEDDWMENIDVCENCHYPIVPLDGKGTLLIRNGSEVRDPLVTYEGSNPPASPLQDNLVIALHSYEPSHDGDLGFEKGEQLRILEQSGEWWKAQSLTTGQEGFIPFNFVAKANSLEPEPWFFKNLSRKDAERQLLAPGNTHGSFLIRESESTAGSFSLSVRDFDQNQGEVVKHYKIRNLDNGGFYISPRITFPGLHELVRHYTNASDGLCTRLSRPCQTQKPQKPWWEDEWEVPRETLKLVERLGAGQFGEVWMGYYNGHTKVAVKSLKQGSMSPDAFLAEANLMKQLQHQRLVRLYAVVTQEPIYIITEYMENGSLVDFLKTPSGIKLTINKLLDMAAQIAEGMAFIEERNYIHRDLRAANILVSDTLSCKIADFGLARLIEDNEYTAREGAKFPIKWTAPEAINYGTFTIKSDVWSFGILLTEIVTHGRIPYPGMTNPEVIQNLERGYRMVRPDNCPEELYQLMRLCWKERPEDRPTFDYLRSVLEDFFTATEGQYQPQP
In a further assay the test system is A2780. Put plainly: Cytotoxic effect in ovarian cancer cell line (A2780). It is filed as functional, cell-based. The note with it: Homo sapiens.

Sequence of Cyclin-dependent kinase 7/ cyclin H (P51946 whole entry): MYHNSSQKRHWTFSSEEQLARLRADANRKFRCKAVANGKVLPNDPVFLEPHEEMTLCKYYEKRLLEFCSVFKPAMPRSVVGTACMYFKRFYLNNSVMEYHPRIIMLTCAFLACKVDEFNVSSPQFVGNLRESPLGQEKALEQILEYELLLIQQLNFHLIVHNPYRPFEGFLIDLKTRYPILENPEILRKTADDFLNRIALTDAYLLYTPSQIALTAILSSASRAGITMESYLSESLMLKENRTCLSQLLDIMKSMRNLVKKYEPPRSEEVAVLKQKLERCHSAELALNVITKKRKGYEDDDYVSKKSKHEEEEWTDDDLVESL
Sequence of Cyclin-dependent kinase 7/ cyclin H (P50613 whole entry): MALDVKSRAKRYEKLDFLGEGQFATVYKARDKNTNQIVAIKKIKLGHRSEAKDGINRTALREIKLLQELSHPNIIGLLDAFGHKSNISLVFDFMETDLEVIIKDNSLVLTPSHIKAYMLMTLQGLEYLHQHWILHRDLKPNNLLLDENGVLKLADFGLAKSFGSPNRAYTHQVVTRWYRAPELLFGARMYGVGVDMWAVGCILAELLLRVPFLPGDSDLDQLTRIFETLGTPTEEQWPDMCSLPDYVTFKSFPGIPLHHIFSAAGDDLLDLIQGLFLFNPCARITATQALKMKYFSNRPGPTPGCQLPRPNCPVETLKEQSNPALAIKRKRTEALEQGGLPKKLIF

In assay [1], `CCCCN(C)c1c(C(=O)c2ccccc2)cnc2[nH]ncc12` had an IC50 greater than 25000 nM.

In the case of `CCCC(C)Oc1c(C(=O)c2ccccc2)cnc2[nH]ncc12` (stereo not given), the IC50 in assay [1] stood at 520 nM; in assay [2] it was 310 nM.

With `O=C(c1ccccc1)c1cnc2[nH]ncc2c1OCc1ccccc1`, the concentration for half-maximal inhibition (IC50) in assay [1] is 280 nM; in assay [2], 350 nM.

In assay [1], `O=C(c1ccccc1)c1cnc2[nH]ncc2c1OCCO` returned a 50% inhibitory concentration (IC50) of 3700 nM.

For the molecule `C=C(c1ccccc1)c1c[nH]c2nncc-2c1OCCCC`, the IC50 in assay [1] is greater than 25000 nM.

For `CCCCOc1c2cnnc-2[nH]cc1C(O)c1ccccc1` (stereo not given), in assay [1], the IC50 was greater than 25000 nM.

In assay [1], `CCCCSc1c(C(=O)c2ccccc2)cnc2[nH]ncc12` had an IC50 of 4400 nM.

In assay [1], `CCCCOc1c(Cc2ccccc2)c[nH]c2nncc1-2` came in with an IC50 greater than 25000 nM.

Regarding `CCn1ncc2c(OCCC(C)C)c(C(=O)c3ccccc3)cnc21`, the IC50 in assay [1] was greater than 25000 nM.

With `CCCCCOc1c(C(=O)c2ccccc2)cnc2[nH]ncc12`, the IC50 came out at 240 nM in assay [1] and 310 nM in assay [2].

With `O=C(c1ccccc1)c1cnc2[nH]ncc2c1Oc1ccccc1`, half-maximal inhibition in assay [1] (IC50) was put at 15000 nM.

For `CN(C)CCOc1c(C(=O)c2ccccc2)cnc2[nH]ncc12`, the IC50 in assay [1] was determined as 17000 nM.

As for `CC(C)CCOc1c(C(=O)c2ccccc2)c[nH]c2nncc1-2`, the IC50 was 180 nM in assay [1]; 240 nM in assay [2]; 1100 nM in assay [3]; greater than 25000 nM in assay [4]; greater than 50000 nM against Protein kinase C (PKC); greater than 50000 nM in assay [5]. In assay [6], the IC50 was greater than 50000 nM.

With `O=C(c1ccccc1)c1cnc2[nH]ncc2c1OC1CCCCC1`, the IC50 in assay [1] amounted to 660 nM; in assay [2], 600 nM.

Regarding `CCCOc1c(C(=O)c2ccccc2)cnc2[nH]ncc12`, the IC50 in assay [1] amounted to 180 nM; in assay [2] it was 220 nM.

In the case of `CCCCOc1c(C(=O)c2ccccc2)cnc2[nH]ncc12` [SQ-67563], the IC50 in the assay with A2780 was 5800 nM; in assay [1], 110 nM; in assay [2], 150 nM; in assay [4] it was greater than 25000 nM.
